pEC50: −log10 of the molar value. Read-outs that look alike come from different tables or passages of the source.
Columns and labels:
[1] = system: KLF15 promoter (pEZX-FR03hKLF15p human podocytes); assay: KLF15 reporter high-throughput screening assay in human podocytes (firefly/renilla luciferase); type: cell-based; details: for fold induction at 1 µM: Homo sapiens, read-out: Fold Change (KLF15 reporter activity)
Experimental: Briefly, these podocytes proliferate under permissive conditions (gamma interferon at 33° C.), but differentiate under nonpermissive conditions (37° C.).
The amplified fragment contains MluI and PmeI RE sites and was subcloned into the MluI and PmeI cloning site of the pEZX-FR03 Firefly luciferase (FLuc) and Renilla luciferase (Rluc) reporter cloning vector (GeneCopoeia) to generate pEZX-FR03hKLF15p. Following verification of the sequence by restriction and μsequencing, the pEZX-FR03hKLF15p construct (which contains a puromycin resistance cassette) was transfected into human podocytes followed by selection in puromycin-containing media for 2 weeks. Surviving podocytes clones were pooled together for further analysis.
The library of compounds from the National Cancer Institute (Approved Oncology Drugs Set VI; Natural Products Set III; Diversity Set V; and Mechanistic Diversity Set II) were added to a final concentration of 1 μM in 0.5% DMSO in the low FBS cell culture media (0.2% FBS) using liquid handling system PipetMax (Gilson). After 24 hours incubation at 37° C., the Luc-Pair™ Duo-Luciferase HT Assay Kit (GeneCopoeia LF015) were used and firefly and renilla luciferase activity was determined using the SpectraMax M3 (Molecular Devices). Positive controls were all-trans retinoic acid (atRA) (1 μM) and dexamethasone (DEX) (1 μM). Negative controls were DMSO and cell-free media.
(§1) To identify small molecule inducers of KLF15 expression in human podocytes, human podocytes were generated with a dual reporter, firefly luciferase directed at the KLF15 promoter region and renilla luciferase (pEZX-FR03hKLF15p). […] The positive controls were inducers of KLF15 expression, dexamethasone (DEX) and all-trans retinoic acid (atRA), and […] and cell-free wells served as negative controls.

[2] = system: KLF15 promoter (pEZX-FR03hKLF15p human podocytes); assay: Half maximal effective concentration (EC50) of KLF15 reporter activity; type: cell-based
Experimental: The EC50 was determined using nonlinear regression and then choosing the equation of Sigmoidal function, 4PL method (X is log(concentration); or the equation of log(agonist) vs. response—variable slope).
as §1

[3] = NCI library hits, 1 μM, 24 hours
[4] = Homo sapiens, KLF15 reporter activity, dose-response, read-out: EC50
[5] = KLF15 reporter activity, dose-response, read-out: EC50

Compound	fold induction at 1 µM [1, 3]	pEC50 [2, 4]	also measured
FC(F)(F)c1cccc(-c2nc3nc(Cl)c(Cl)nc3[nH]2)c1 [C-16, 5,6-dichloro-2-[3-(trifluoromethyl)phenyl]-1H-imidazo[4,5-b]pyrazine]	2.82	7.28	
CN(C)c1ccc(N=Nc2cccc3ccoc23)cc1 [C-28, 7-(p-N,N-Dimethylaminophenylazo)benzofuran]	2.87	~5.20	
5-Methylbenzo[c]phenanthridin-5-ium-2,3,8,9-tetrol; pyridine; chloride; hydrochloride [C-23]			Fold Change (KLF15 reporter activity) [1, 3]: 3.0541 fold; pEC50 [2, 5]: 6.53
Cc1ccc(NC(=O)c2cccc([N+](=O)[O-])c2O)c([N+](=O)[O-])c1 [C-21, 2-hydroxy-N-(4-methyl-2-nitrophenyl)-3-nitrobenzamide]			fold induction at 1 µM ([1]; 24 h): 3.11; pEC50 ([2]; Homo sapiens): 7.21
O=C(Nc1ccc(Cl)c(Cl)c1)Nc1ccccc1O [C-13, N-(3,4-dichlorophenyl)-N′-(2-hydroxyphenyl)urea]	2.64	7.06	
CCOC(=O)c1sc2[n+](c1C)C(=O)/C(=C/c1ccc([N+](=O)[O-])cc1)S2.[Cl-] [C-32, ethyl (2Z)-5-methyl-2-[(4-nitrophenyl)methylidene]-3-oxo-[1,3]thiazolo[2,3-b][1,3]thiazol-4-ium-6-carboxylate;chloride]			Fold Change (KLF15 reporter activity) [1, 3]: 2.8360 fold
COc1ccc(C(C#N)=Cc2ccccn2)cc1 [C-40, 2-(4-methoxyphenyl)-3-pyridin-2-ylprop-2-enenitrile]	2.6	6.26	
O=C(NC(=S)Nc1ccccn1)c1ccccc1 [C-36, N-(pyridin-2-ylcarbamothioyl)benzamide]	2.64	6.53	
COc1ccc(N=Nc2ccc(N)nc2N)cc1 [C-20, 3-[(4-Methoxyphenyl)azo]-2,6-pyridinediamine]	3.14	7.07	
CN(C)c1cccc(C=C(C#N)c2ccccc2)c1 [C-4, 2-Propenenitrile, 3-[3-(dimethylamino)phenyl]-2-phenyl-]	2.57	7.62	
O=C(Nc1ccc2ccccc2c1)c1cccc(F)c1 [C-8, 3-fluoro-N-(2-naphthyl)benzamide]	2.79	7.15	
c1ccc(-c2nnc(-c3ccccn3)s2)nc1 [C-30, 2,5-dipyridin-2-yl-1,3,4-thiadiazole]	2.86	6.48	
Cc1ccc(NNC2=C3N=NN=C3C=CC2=O)cc1 [C-43, 4-[2-(4-methylphenyl)hydrazinyl]benzotriazol-5-one]	2.57	6.06	
Clc1ccccc1-c1nc(-c2ccncc2)no1 [C-10, Pifexole]	2.72	6.48	
COc1cccc(C=Cc2nccc3ccccc23)c1OC [C-44]			Fold Change (KLF15 reporter activity) [1, 3]: 2.5631 fold; pEC50 [2, 5]: ~5.74
Nc1ccc2c(c1)CN1C(=O)c3ccccc3C1=N2 [C-2, Batracyclin]	3.07	7.83	
O=C1C(c2cnc3ccccc3n2)=C(O)c2ccccc21 [C-31, 1-Indenone, 3-hydroxy-2-(2-quinoxalinyl)-]	2.85	7.34	
Nc1ccccc1C(=O)Nc1ccc(Cl)cc1Cl [C-11, 2-amino-N-(2,4-dichlorophenyl)benzamide]	2.64	6.15	
COc1ccc2[nH]c(-c3ccccc3)cc2c1 [C-5, 5-methoxy-2-phenyl-1H-indole]	3.14	7.25	

Compound	fold induction at 1 µM [1, 3]	pEC50 [2, 4]	also measured
Tin(IV), chlorotriphenyl[1-(4-ethoxyphenyl)-3-cyanoureato]-, hydrogen, trimethylamine [C-17]			Fold Change (KLF15 reporter activity) [1, 3]: 4.6159 fold
CN(C)c1ccc(/C=C2\C=Cc3ccccc32)cc1 [C-3, [(4-Dimethylamino)benzylidene]indene]			Fold Change (KLF15 reporter activity) [1, 3]: 2.6455 fold; pEC50 [2, 5]: 7.75
CC1=C(O)C(=O)C=C2C1=CC=C1[C@@]2(C)CC[C@@]2(C)[C@@H]3C[C@](C)(C(=O)O)CC[C@]3(C)CC[C@]12C [C-19, Celastrol]			fold induction at 1 µM ([1]; 24 h): 3.28; pEC50 ([2]; Homo sapiens): 7.95
O=C1Nc2ccccc2C1=NNC(=O)c1ccccc1O [C-34, 2-hydroxy-N′-(2-oxo-1,2-dihydro-3H-indol-3-ylidene)benzohydrazide]	2.69	6.92	
O=C1C=C/C(=C2/Nc3ccccc3S2)C(O)=C1 [C-33, (4E)-4-(3H-1,3-benzothiazol-2-ylidene)-3-hydroxycyclohexa-2,5-dien-1-one]	2.75	6.31	
COc1ccc2c(n1)Sc1nc3ccccc3nc1N2 [C-35, 7-Methoxy-1,4,6-benzotriazaphenothiazine]			Fold Change (KLF15 reporter activity) [1, 3]: 2.6597 fold; pEC50 [2, 5]: 6.50
CN(C)c1ccc(N=Nc2ccccn2)cc1 [C-37, 4-(2-pyridylazo)-n,n-dimethylaniline]			Fold Change (KLF15 reporter activity) [1, 3]: 2.6148 fold; pEC50 [2, 5]: 7.57
Cc1csc(N=Nc2ccc(N(C)C)cc2)[n+]1[O-] [C-39, N,N-dimethyl-4-[(4-methyl-3-oxido-1,3-thiazol-3-ium-2-yl)diazenyl]aniline]	2.6	~5.16	
Cc1cccn2c(=O)[nH]nc12 [C-29]			Fold Change (KLF15 reporter activity) [1, 3]: 2.8700 fold; pEC50 [2, 5]: 6.26
Cc1cc(N(C)C)ccc1/N=N/c1ccc2ncccc2c1 [C-25, N,N,3-trimethyl-4-[(E)-6-quinolylazo]aniline]	3.02	7.80	
Oc1ccc(-c2nc3ccccc3s2)cc1 [C-1, Phenol,4-(2-benzothiazolyl)]			Fold Change (KLF15 reporter activity) [1, 3]: 3.0083 fold; pEC50 [2, 5]: 7.00
Cc1cccnc1NC(=S)Nc1ncccc1C [C-6, 1,3-bis(3-methylpyridin-2-yl)thiourea]	2.71	6.11	
O=C(Nc1cccc([N+](=O)[O-])c1)c1ccc2ccccc2c1O [C-38, 2-<3-Nitro-phenylcarbamoyl>-naphth-1-ol]			Fold Change (KLF15 reporter activity) [1, 3]: 2.6069 fold; pEC50 [2, 5]: 6.84
O=C(Nc1ccc(Nc2ccccc2)cc1)Nc1ccccc1Cl [C-14, 1-(4-Anilinophenyl)-3-(2-chlorophenyl)urea]	3.03	7.38	
CC(=NNc1nc2ccccc2s1)c1ccncn1 [C-18, 2-(2-(1-(pyrimidin-4-yl)ethylidene)hydrazinyl)benzo[d]thiazole]	3.29	6.81	
O=C1C(=Cc2ccc([N+](=O)[O-])cc2)Sc2scc(-c3cccc([N+](=O)[O-])c3)[n+]21 [C-42, Thiazolo[2,3-b]thiazolium, 2,3-dihydro-2-[(4-nitrophenyl)methylene]-5-(3-nitrophenyl)-3-oxo-, chloride]			fold induction at 1 µM ([1]; 24 h): 2.58
NC(=O)c1ccccc1OCC(=O)Nc1ccc(Cl)c(Cl)c1 [C-12, 2-[2-(3,4-Dichloroanilino)-2-oxoethoxy]benzamide]	3.13	7.43	
COc1cccc2nc3cc(C)c(C)cc3nc12 [C-41, 1-Methoxy-7,8-dimethylphenazine]	2.59	6.67	
Cc1nc(-n2nc(-c3ccccc3)cc2-c2ccccc2)sc1C(=O)C=Cc1ccc(Cl)c(Cl)c1 [C-27, 3-(3,4-dichlorophenyl)-1-(2-(3,5-diphenyl-1H-pyrazol-1-yl)-4-methylthiazol-5-yl)prop-2-en-1-one]	2.89		

Reference: patent US20250186411A1, “Methods of Treating Disorders Associated with Overactivation of IKKB” (The United States Government as represented by the …, priority 2023, published 2025)
